Assay results: patent US6489315B1, “Cyclic compounds, their production and use” (Takeda Chemical Industries, Ltd., priority 1995, dated 2002)

| melting point | SMILES |
| --- | --- |
| 142 to 143 °C | C[C@H]1COc2nccc(-c3ccccc3)c2C(=O)N(Cc2cc(C(F)(F)F)cc(C(F)(F)F)c2)C1 [Example 72, (R)-5-[3,5-Bis(trifluoromethyl)benzyl]-2,3,4,5-tetrahydro-3-methyl-6-oxo-7-phenyl-6H-pyrido[2,3-b][1,5]oxazocine] |
| 203 to 204 °C | Cc1ccc(-c2ccnc3c2C(=O)N(Cc2ccccc2)CCO3)cc1 [Example 79, 4-Benzyl-2,3,4,5-tetrahydro-5-oxo-6-(4-methylphenyl)pyrido(3,2-f][1,4]oxazepine] |
| 189 to 192 °C | O=C1c2c(-c3ccccc3)ccnc2OCCN1Cc1ccc(Cl)c(Cl)c1 [Example 65, 4-(3,4-Dichlorobenzyl)-2,3,4,5-tetrahydro-5-oxo-6-phenylpyrido[3,2-f][1,4]oxazepine] |
| 235 to 236 °C | CN(C)C(=O)c1cc(-c2ccccc2)c2c(n1)OCCN(Cc1cc(C(F)(F)F)cc(C(F)(F)F)c1)C2=O [Example 59, 4-[3,5-Bis(trifluoromethyl)benzyl]-N,N-dimethyl-2,3,4,5-tetrahydro-5-oxo-6-phenylpyrido[3,2-f][1,4]oxazepine-8-carboxamide] |
| 212 to 213 °C | Cc1ccc(-c2ccnc3c2C(=O)N(Cc2cc(C(F)(F)F)cc(C(F)(F)F)c2)CCO3)cc1 [Example 80, 4-[3,5-Bis(trifluoromethyl)benzyl]2,3,4,5-tetrahydro-5-oxo-6-(4-methylphenyl)pyrido[3,2-f][1,4]oxazepine] |
| 145 °C (dec.) | CNC(=O)c1cc(-c2ccccc2)c2c(n1)OCCN(Cc1cc(C(F)(F)F)cc(C(F)(F)F)c1)C2=O [Example 58, 4-[3,5-Bis(trifluoromethyl)benzyl]-N-methyl-2,3,4,5-tetrahydro-5-oxo-6-phenylpyrido[3,2-f][1,4]oxazepine-8-carboxamide] |
| 218 to 220 °C | O=C(c1cc(-c2ccccc2)c2c(n1)OCCN(Cc1cc(C(F)(F)F)cc(C(F)(F)F)c1)C2=O)N1CCCCC1 [Example 61, 4-[3,5-Bis(trifluoromethyl)benzyl]-2,3,4,5-tetrahydro-5-oxo-6-phenyl-8-piperidinocarbonylpyrido[3,2-f][1,4]oxazepine] |
| 139 to 140 °C | C[C@H]1COc2nccc(-c3ccccc3)c2C(=O)N(Cc2ccccc2)C1 [Example 70, (R)-5-Benzyl-2,3,4,5-tetrahydro-3-methyl-6-oxo-7-phenyl-6H-pyrido[2,3-b][1,5]oxazocine] |
| 194 to 196 °C | CCCCNC(=O)c1cc(-c2ccccc2)c2c(n1)OCCN(Cc1cc(C(F)(F)F)cc(C(F)(F)F)c1)C2=O [Example 60, 4-[3,5-Bis(trifluoromethyl)benzyl]-N-n-butyl-2,3,4,5-tetrahydro-5-oxo-6-phenylpyrido[3,2-f][1,4]oxazepine-8-carboxamide] |

Continued, compound first:

| SMILES | melting point |
| --- | --- |
| Cc1ccc(-c2c3n(c(=O)c4ncccc24)C[C@@H](C)CN(Cc2cc(C(F)(F)F)cc(C(F)(F)F)c2)C3=O)cc1 [Example 14, (9S)-7-(3,5-Bis(trifluoromethyl)benzyl]-6,7,8,9,10,12-hexahydro-9-methyl-5-(4-methylphenyl)-6,12-dioxo[1,4]diazepino[2,1-g][1,7]naphthyridine] | 179 to 180 °C |
| Cc1ccc(-c2c3n(c(=O)c4ncccc24)CC[C@@H](C)CN(Cc2cc(C(F)(F)F)cc(C(F)(F)F)c2)C3=O)cc1 [Example 18, (9R)-7-[3,5-Bis(trifluoromethyl)benzyl]-6,7,8,9,10,11-hexahydro-9-methyl-5-(4-methylphenyl)-6,13-dioxo-13H-[1,4]diazocino[2,1-g][1,7]naphthyridine] | 226 to 228 °C |
| CC(=O)OCc1cc(-c2ccccc2)c2c(n1)OCCCN(Cc1cc(C(F)(F)F)cc(C(F)(F)F)c1)C2=O [Example 38, 9-Acetoxymethyl-5-[3,5-bis(trifluoromethyl)benzyl]-2.3,4,5-tetrahydro-6-oxo-7-phenyl-6H-pyrido[2,3-b][1,5]oxazocine] | 156 to 157 °C |
| Cc1cnc2c(c1-c1ccccc1)C(=O)N(Cc1cc(C(F)(F)F)cc(C(F)(F)F)c1)CCCN(C)C2=O [Example 54, 6-[3,5-Bis(trifluoromethyl)benzyl]-6,7,8,9,10,11-hexahydro-3,10-dimethyl-5,11-dioxo-4-phenyl-5H-pyrido[2,3-g][1,5]diazonine] | 247 to 249 °C |
| O=C1c2c(-c3ccccc3)ccnc2NCCN1Cc1cc(C(F)(F)F)cc(C(F)(F)F)c1 [Example 21, 4-[3,5-Bis(trifluoromethyl)benzyl]-2,3,4,5-tetrahydro-5-oxo-6-phenyl-1H-pyrido[2,3-e][1,4]diazepine] | 242 to 243 °C |
| C[C@@H]1CCn2c(c(-c3ccccc3)c3cccnc3c2=O)C(=O)N(Cc2cc(C(F)(F)F)cc(C(F)(F)F)c2)C1 [Example 17, (9R)-7-[3,5-Bis(trifluoromethyl)benzyl]-6,7,8,9,10,11-hexahydro-9-methyl-6,13-dioxo-5-phenyl-13H-[1,4]diazocino[2,1-g][1,7]naphthyridine] | 245 to 247 °C |
| CN(C)Cc1cc(-c2ccccc2)c2c(n1)OCCN(Cc1cc(C(F)(F)F)cc(C(F)(F)F)c1)C2=O [Example 45, 4-[3,5-Bis(trifluoromethyl)benzyl]-8-dimethylaminomethyl-2,3,4,5-tetrahydro-5-oxo-6-phenylpyrido[3,2-f][1,4]oxazepine] | 186 to 188 °C |
| COCc1cc(-c2ccccc2)c2c(n1)OCCN(Cc1cc(C(F)(F)F)cc(C(F)(F)F)c1)C2=O [Example 40, 4-[3,5-Bis(trifluoromethyl)benzyl]-2,3,4,5-tetrahydro-8-methoxymethyl-5-oxo-6-phenylpyrido[3,2-f][1,4]oxazepine] | 139 to 140 °C |
| CC(=O)NCc1cc(-c2ccccc2)c2c(n1)OCCN(Cc1cc(C(F)(F)F)cc(C(F)(F)F)c1)C2=O [Example 48, 8-Acetylaminomethyl-4-[3,5-bis(trifluoromethyl)benzyl]-2,3,4,5-tetrahydro-5-oxo-6-phenylpyrido[3,2-f][1,4]oxazepine] | 223 to 224 °C |
| C[C@H]1CN(Cc2cc(C(F)(F)F)cc(C(F)(F)F)c2)C(=O)c2c(-c3ccccc3)c3cccnc3c(=O)n2C1 [Example 13, (9S)-7-[3,5-Bis(trifluoromethyl)benzyl]-6,7,8,9,10,12-hexahydro-9-methyl-6,12-dioxo-5-phenyl[1,4]diazepino[2,1-g][1,7]naphthyridine] | 150 to 152 °C |
| O=C1c2c(-c3ccccc3)cc(CCl)nc2OCCN1Cc1cc(C(F)(F)F)cc(C(F)(F)F)c1 [Example 39, 4-[3,5-Bis(trifluoromethyl)benzyl]-8-chloromethyl-2,3,4,5-tetrahydro-5-oxo-6-phenylpyrido[3,2-f][1,4]oxazepine] | 183 to 184 °C |
